Laboratory results as given in ChEMBL document CHEMBL1201862, “PubChem BioAssay data set” (2004).
Activity calls are given as the source filed them.

biological target: T1, Carboxy-terminal domain RNA polymerase II polypeptide A small phosphatase 1 (Homo sapiens, UniProt Q9GZU7); assay: inhibitors of CTDSP1, concentration-response testing, biochemical assay, absorbance-based, actives from ultra-high-throughput screening (AID 540297); type: functional; details: not given
T1 sequence (Q9GZU7 whole entry): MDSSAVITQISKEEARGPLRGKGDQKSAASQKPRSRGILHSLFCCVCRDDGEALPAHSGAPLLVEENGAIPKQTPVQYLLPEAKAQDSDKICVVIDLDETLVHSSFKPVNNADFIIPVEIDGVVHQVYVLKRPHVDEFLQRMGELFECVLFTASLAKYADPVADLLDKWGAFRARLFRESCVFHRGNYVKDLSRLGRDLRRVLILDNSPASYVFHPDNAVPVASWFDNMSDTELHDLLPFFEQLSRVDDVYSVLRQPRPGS

SMILES | IC50
O=C(CSc1nnc(CNC(=O)c2c(F)cccc2F)o1)NCc1ccco1 | 14 µM (active)
O=C(COc1ccc(-n2cnnn2)cc1)Nc1ccccc1Cl | 11.4 µM (active)
O=C(CN1C(=O)N/C(=C\c2ccccc2OCc2ccc(C(=O)O)cc2)C1=O)Nc1ccc(F)cc1 | 9.09 µM (active)
O=C(COC(=O)c1cc(-c2cccs2)nc2ccccc12)NCc1ccco1 | 9.73 µM (active)
CC(C)[N+](C)(CCC(C(N)=O)(c1ccccc1)c1ccccc1)C(C)C [ISOPROPAMIDE IODIDE] | 3.27 µM (active)

biological target: FAD-linked sulfhydryl oxidase ALR (Homo sapiens, UniProt P55789); assay: inhibitors of human ALR sulfhydryl oxidase, dose response, biochemical, H2O2 detection, luminescence, cherry-pick (AID 493248); details: not given
Sequence (P55789 whole entry): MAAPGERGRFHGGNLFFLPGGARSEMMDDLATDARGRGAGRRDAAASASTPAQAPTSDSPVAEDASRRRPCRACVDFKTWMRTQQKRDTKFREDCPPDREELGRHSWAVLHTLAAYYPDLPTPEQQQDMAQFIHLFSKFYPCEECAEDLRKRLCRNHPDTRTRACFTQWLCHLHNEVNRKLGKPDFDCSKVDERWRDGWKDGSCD

SMILES | AC50
NNc1nc2ccc(F)cc2s1 | 4.94 µM (active)
COc1ccc(N2CCN(C(=O)CCNS(=O)(=O)c3ccccc3)CC2)cc1 | 8.08 µM (active)
CN(CC(=O)Nc1cccc2ccccc12)C(=O)c1ccc(NC(=O)CC#N)cc1 | 6.29 µM (active)
O=C(CN1CCN(c2ccc(Cl)cc2)CC1)N1CCCC1 | 0.657 µM (active)
Cc1ccc2[nH]c(C(=O)O)c(-c3ccccc3)c2c1 | 4.49 µM (active)
O=C(Nc1ccc(Nc2ccccc2)cc1)C1CC1 | 0.875 µM (active)
Cn1c(=O)[nH]c(=O)c2c1nc(Br)n2CCCSc1nc2ccccc2o1 | < 0.005 µM (active)
COc1ccc(C(=O)NCC(c2cccnc2)N2CCN(c3ccc(F)cc3)CC2)cc1OC (stereo not drawn) | < 0.005 µM (active)

biological target: T2, Polyadenylate-binding protein 1 (Homo sapiens, UniProt P11940); assay: PABP1 MLLE–PAM2 interaction inhibitors, dose response, miRNA deadenylation inhibitor project, biochemical, fluorescence polarization, Cy5-PAM2 peptide, secondary (AID 602260); type: functional; details: read-out: IC50_Mean
T2 sequence (P11940 whole entry): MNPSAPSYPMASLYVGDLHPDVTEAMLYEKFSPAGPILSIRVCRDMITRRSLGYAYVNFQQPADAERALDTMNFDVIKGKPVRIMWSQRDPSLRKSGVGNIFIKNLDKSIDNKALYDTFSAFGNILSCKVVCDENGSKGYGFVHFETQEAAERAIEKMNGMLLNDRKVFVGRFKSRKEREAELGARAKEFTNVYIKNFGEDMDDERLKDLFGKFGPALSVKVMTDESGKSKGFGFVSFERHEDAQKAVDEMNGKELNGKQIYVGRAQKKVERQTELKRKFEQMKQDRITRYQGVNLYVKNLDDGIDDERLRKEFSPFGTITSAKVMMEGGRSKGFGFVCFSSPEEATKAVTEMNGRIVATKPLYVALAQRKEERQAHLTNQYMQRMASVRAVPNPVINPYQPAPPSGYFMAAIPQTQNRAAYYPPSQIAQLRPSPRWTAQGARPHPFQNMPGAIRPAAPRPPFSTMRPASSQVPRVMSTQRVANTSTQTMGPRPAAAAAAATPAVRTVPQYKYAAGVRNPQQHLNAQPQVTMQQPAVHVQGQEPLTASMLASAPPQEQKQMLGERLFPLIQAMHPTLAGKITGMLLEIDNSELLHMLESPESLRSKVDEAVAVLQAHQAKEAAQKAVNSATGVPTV

SMILES | IC50
COC(=O)c1c(NC(=O)C2C3CCC(C3)C2C(=O)O)sc2c1CCCCC2 (stereo not drawn) | > 66 µM (inactive)
CC(C)c1nnc(NC(=O)CS(=O)(=O)Cc2ccccc2)s1 | > 66 µM (inactive)
Cc1cc(NC(=O)CSC2=NCCS2)no1 | > 66 µM (inactive)
COc1ccc(NS(=O)(=O)c2ccc(NC(=S)NC(=O)c3cccc(F)c3)cc2)nn1 | > 66 µM (inactive)
CCCCN=C(S)Nc1ccc(OC)nc1 | > 66 µM (inactive)
CCCC(=O)NC(=S)Nc1cccc(Cl)c1N1CCCC1 | > 66 µM (inactive)
CCc1c(O)n(-c2ccccc2C)c(SCC(=O)Nc2ccccc2OC)nc1=O | > 66 µM (inactive)
O=C(O)C1CCCN1c1nc(Cl)ccc1[N+](=O)[O-] (stereo not drawn) | > 66 µM (inactive)

biological target: T3, Rac GTPase-activating protein 1 (Homo sapiens, UniProt Q9H0H5); assay: MgcRacGAP GTPase-activating activity inhibitors, confirmation, biochemical, ADP Hunter fluorescence, primary and confirmatory (AID 624330); type: functional; details: not given
T3 sequence (Q9H0H5 whole entry): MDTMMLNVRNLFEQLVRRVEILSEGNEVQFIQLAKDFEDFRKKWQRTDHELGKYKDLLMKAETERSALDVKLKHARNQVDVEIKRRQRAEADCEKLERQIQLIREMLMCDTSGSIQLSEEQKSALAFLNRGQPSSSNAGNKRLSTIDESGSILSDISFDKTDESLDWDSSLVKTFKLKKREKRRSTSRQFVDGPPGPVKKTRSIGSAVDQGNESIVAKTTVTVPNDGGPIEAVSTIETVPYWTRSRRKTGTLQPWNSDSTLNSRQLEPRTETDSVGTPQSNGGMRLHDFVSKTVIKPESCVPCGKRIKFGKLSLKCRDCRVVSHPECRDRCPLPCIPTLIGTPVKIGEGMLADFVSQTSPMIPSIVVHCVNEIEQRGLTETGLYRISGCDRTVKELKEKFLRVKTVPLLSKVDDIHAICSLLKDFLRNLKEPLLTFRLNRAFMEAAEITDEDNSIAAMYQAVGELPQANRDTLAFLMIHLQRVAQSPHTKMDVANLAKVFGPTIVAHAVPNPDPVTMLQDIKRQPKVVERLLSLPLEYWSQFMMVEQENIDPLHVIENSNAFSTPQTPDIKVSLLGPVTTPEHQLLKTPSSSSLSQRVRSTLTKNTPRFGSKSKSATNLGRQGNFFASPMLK

SMILES | IC50
O=C(Nc1ccc(Nc2ccccc2)cc1)C1CC1 | 50.8 µM (active)

test system: not listed separately; assay: inhibitors of firefly luciferase expression or activity, dose response, H4 neuroglioma cells, luminescence (AID 1990); type: functional, cell-based; details: not given

SMILES | EC50
Cc1nc(C(F)(F)F)c(C(=O)NN=C(N)c2ccccn2)s1 | 11.5 µM (active)

test system: not listed separately; assay: inhibitors of intracellular T. cruzi replication, confirmation, NIH3T3 host cells, beta-gal luminescence (AID 2044); type: functional, cell-based; details: not given;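 note: intracellular parasites grown in NIH/3T3 mouse fibroblasts as host cells; luminescent beta-galactosidase reporter signal from transgenic T. cruzi replicating inside host cells; inhibitors lower the luminescence signal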

SMILES | EC50
Cn1c(=O)[nH]c(=O)c2c1nc(Br)n2CCCSc1nc2ccccc2o1 | 1.32 µM (active)

test system: not listed separately; assay: Luminescence Cell-Based Dose Retest to Confirm Inhibitors of Cancer Stem Cells. [Related pubchem assays (depositor defined):AID2717, AID2721]; type: functional; details: Homo sapiens

SMILES | AC50
CCCC(=O)NC(=S)Nc1cccc(Cl)c1N1CCCC1 | 4.17 µM (active)
CCSc1ncc(/C=N/Nc2ccc(Cl)cc2)n1C | 3.3 µM (active)

test system: not listed separately; assay: inhibitors of SNCA 5'UTR-driven reporter translation, confirmation, H4 neuroglioma cells, luminescence (AID 1988); type: functional, cell-based; details: not given

SMILES | EC50
Cc1nc(C(F)(F)F)c(C(=O)NN=C(N)c2ccccn2)s1 | > 120 µM (not active)

biological target: T2, Polyadenylate-binding protein 1; assay: PABP1 MLLE–PAM2 binding inhibitor potency, dose response, biochemical, fluorescence polarization, FITC-PAM2 peptide (AID 602259); type: functional; details: read-out: IC50_Mean

SMILES | IC50
COC(=O)c1c(NC(=O)C2C3CCC(C3)C2C(=O)O)sc2c1CCCCC2 (stereo not drawn) | > 66 µM (inactive)
CC(C)c1nnc(NC(=O)CS(=O)(=O)Cc2ccccc2)s1 | > 66 µM (inactive)
Cc1cc(NC(=O)CSC2=NCCS2)no1 | > 66 µM (inactive)
COc1ccc(NS(=O)(=O)c2ccc(NC(=S)NC(=O)c3cccc(F)c3)cc2)nn1 | > 66 µM (inactive)
CCCCN=C(S)Nc1ccc(OC)nc1 | 43.7 µM (inactive)
CCCC(=O)NC(=S)Nc1cccc(Cl)c1N1CCCC1 | > 66 µM (inactive)
CCc1c(O)n(-c2ccccc2C)c(SCC(=O)Nc2ccccc2OC)nc1=O | > 66 µM (inactive)
O=C(O)C1CCCN1c1nc(Cl)ccc1[N+](=O)[O-] (stereo not drawn) | > 66 µM (inactive)

biological target: T4, RNA-binding protein pos-1 (Caenorhabditis elegans, UniProt G5EF15); assay: inhibitors of POS-1/mex-3 RNA binding, dose response, biochemical, fluorescence polarization (AID 1964); details: not given;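 note: purified POS-1 fused to maltose binding protein made in E. coli; potency of compounds blocking POS-1 binding to fluorescent RNA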
T4 sequence (G5EF15 whole entry): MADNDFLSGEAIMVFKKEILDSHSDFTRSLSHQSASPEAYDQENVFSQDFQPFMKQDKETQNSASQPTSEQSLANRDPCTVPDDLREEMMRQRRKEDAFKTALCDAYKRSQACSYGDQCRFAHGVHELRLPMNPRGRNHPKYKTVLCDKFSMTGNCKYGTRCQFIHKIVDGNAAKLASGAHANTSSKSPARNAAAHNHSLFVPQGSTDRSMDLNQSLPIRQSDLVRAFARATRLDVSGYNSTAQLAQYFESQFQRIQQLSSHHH

SMILES | EC50
CCCCC1=CC2=CC(=O)C(C)(OC(=O)c3ccc(Cl)nc3)C(=O)C2=CO1 (stereo not drawn) | 21.7 µM (active)
COc1ccc(OC)c(C(=O)c2coc3ccc(O)c(CN4CCOCC4)c23)c1 | > 300 µM (not active)
Cn1c(=O)c(-c2cc(O)[nH]n2)c(O)c2ccccc21 | > 300 µM (not active)
CN1C(=O)C(=Cc2ccc(Sc3ccccc3)o2)C(=O)N(C)C1=S | > 300 µM (not active)
Cc1ccc(C)n1-c1ccc2c(c1)COC2=O | > 300 µM (not active)
COc1ccccc1C(=O)C1CCCN(C(=O)c2cccnc2SC)C1 (stereo not drawn) | > 300 µM (not active)
CCCCCCN1C(=O)NC(=O)/C(=C\NCCCn2ccnc2)C1=O | > 300 µM (not active)
COc1cccc(/C=N/NC(=O)c2ccc(O)nn2)c1O | 31.7 µM (active)

biological target: Nonstructural protein 1 (Influenza A virus, UniProt Q194T2); assay: not given; type: functional, Influenza A virus (A/California/07/2009(H1N1)); details: not given
Sequence (Q194T2 whole entry): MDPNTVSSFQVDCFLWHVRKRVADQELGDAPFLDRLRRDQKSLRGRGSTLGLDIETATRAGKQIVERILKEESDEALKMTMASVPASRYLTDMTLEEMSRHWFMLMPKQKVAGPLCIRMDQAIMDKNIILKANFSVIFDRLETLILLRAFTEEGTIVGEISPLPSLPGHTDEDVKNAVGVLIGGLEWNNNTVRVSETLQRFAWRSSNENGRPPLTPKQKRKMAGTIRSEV

SMILES | IC50
Nc1nn(-c2ccccc2)c(N)c1N=Nc1ccccc1F | > 100 µM (active)
Cc1nc(C(F)(F)F)c(C(=O)NN=C(N)c2ccccn2)s1 | 8.03 µM (active)
CCOC(=O)c1nc(Nc2ccc(N3CCC(C)CC3)cc2)c2ccccc2n1 | 26.9 µM (active)
Cc1onc(-c2ccccc2Cl)c1C(=O)NCCn1c(C)cc2ccccc21 | > 100 µM (active)
O=C1NC(c2ccccn2)Nc2sc3c(c21)CCC3 (stereo not drawn) | 54.2 µM (active)
c1ccc(-c2cn(C[C@H]3CC[C@H](Cn4cc(-c5ccccn5)nn4)O3)nn2)nc1 | 3.19 µM (active)
Cc1cc(C(=O)N/N=C/c2cccc([N+](=O)[O-])c2O)[nH]n1 | 7.33 µM (active)

biological target: Cytochrome P450 3A4 (Homo sapiens, UniProt P08684); assay: not given; details: not given;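 note: CYP3A4 tested as one member of a cytochrome P450 panel screen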
Sequence (P08684 whole entry): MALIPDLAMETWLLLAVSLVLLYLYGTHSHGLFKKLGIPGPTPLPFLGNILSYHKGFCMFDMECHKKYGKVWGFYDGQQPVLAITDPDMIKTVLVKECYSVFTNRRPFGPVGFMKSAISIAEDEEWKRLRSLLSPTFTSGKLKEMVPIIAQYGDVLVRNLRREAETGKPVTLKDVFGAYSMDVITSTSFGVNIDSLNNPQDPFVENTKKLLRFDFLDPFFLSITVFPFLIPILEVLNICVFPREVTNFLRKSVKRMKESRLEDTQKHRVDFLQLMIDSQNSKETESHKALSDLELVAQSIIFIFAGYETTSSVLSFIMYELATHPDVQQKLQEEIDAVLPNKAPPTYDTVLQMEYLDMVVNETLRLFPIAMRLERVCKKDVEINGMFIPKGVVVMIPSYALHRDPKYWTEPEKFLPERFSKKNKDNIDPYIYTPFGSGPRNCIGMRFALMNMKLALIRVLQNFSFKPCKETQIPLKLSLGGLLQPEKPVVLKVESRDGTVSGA

SMILES | AC50
O=C(OCc1ccccn1)c1ccc(COc2ccccc2Cl)o1 | 31.6 µM (inconclusive)

test system: not listed separately; assay: Luminescence Cell-Based Dose Response HTS to Identify Inhibitors of 5'UTR Stem-Loop Driven Prion Protein mRNA Translation in H4 Neuroglioblastoma Cells. [Related pubchem assays: 1827 (Project Summary), 1813 (Primary HTS)]; type: functional; details: not given

SMILES | EC50
Cc1nc(C(F)(F)F)c(C(=O)NN=C(N)c2ccccn2)s1 | > 120 µM (not active)

biological target: Cytochrome P450 2C9 (Homo sapiens, UniProt P11712); assay: not given; details: not given
Sequence (P11712 whole entry): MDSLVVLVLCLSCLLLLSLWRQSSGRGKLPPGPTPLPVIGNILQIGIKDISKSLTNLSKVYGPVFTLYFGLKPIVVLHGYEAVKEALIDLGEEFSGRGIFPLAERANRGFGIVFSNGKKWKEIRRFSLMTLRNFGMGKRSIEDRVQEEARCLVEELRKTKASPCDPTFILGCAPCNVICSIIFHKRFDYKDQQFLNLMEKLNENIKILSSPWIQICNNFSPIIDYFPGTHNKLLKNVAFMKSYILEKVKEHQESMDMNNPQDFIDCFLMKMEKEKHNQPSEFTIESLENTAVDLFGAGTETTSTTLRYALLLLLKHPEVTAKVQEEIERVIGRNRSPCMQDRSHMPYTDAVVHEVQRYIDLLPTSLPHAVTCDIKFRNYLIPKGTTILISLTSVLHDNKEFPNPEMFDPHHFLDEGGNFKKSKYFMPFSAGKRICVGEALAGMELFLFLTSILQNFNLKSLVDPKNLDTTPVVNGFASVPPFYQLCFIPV

SMILES | AC50
O=C(OCc1ccccn1)c1ccc(COc2ccccc2Cl)o1 | 39.8 µM (inconclusive)

biological target: T5, Zinc finger protein mex-5 (Caenorhabditis elegans, UniProt Q9XUB2); assay: MEX-5/TCR-2 RNA interaction inhibitors, dose response, biochemical, C. elegans, fluorescence polarization (AID 1960); details: not given
T5 sequence (Q9XUB2 whole entry): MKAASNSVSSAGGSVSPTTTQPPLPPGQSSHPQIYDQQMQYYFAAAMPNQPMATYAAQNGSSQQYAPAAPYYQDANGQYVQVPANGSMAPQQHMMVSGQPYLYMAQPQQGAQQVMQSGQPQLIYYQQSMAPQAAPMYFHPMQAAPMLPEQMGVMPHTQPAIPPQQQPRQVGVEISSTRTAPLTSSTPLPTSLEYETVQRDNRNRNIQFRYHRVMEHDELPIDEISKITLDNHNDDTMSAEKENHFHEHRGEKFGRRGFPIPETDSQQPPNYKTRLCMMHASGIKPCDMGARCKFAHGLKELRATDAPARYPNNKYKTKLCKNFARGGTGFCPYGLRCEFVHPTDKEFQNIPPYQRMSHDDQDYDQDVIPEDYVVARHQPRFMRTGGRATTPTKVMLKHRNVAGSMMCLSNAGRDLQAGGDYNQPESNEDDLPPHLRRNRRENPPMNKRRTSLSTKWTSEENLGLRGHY

SMILES | EC50
CCCCC1=CC2=CC(=O)C(C)(OC(=O)c3ccc(Cl)nc3)C(=O)C2=CO1 (stereo not drawn) | 21.6 µM (active)
COc1ccc(OC)c(C(=O)c2coc3ccc(O)c(CN4CCOCC4)c23)c1 | > 300 µM (not active)
Cn1c(=O)c(-c2cc(O)[nH]n2)c(O)c2ccccc21 | 23.3 µM (active)
CN1C(=O)C(=Cc2ccc(Sc3ccccc3)o2)C(=O)N(C)C1=S | > 300 µM (not active)
Cc1ccc(C)n1-c1ccc2c(c1)COC2=O | > 300 µM (not active)
COc1ccccc1C(=O)C1CCCN(C(=O)c2cccnc2SC)C1 (stereo not drawn) | > 300 µM (not active)
CCCCCCN1C(=O)NC(=O)/C(=C\NCCCn2ccnc2)C1=O | > 300 µM (inconclusive)

test system: not listed separately; assay: cells; type: functional; details: not given

SMILES | IC50
CC1CCN(C(=O)COC(=O)CCc2c[nH]c3ccccc23)CC1 | 2.53 µM (active)
O=C(OCc1ccccn1)c1ccc(COc2ccccc2Cl)o1 | 35.1 µM (active)
N#Cc1nc(-c2cccs2)oc1NCCc1ccccc1 | 7.45 µM (active)
CO/N=C/CC(=O)c1ccc(OC)cc1 | 22.9 µM (active)
CCSc1ncc(/C=N/Nc2ccc(Cl)cc2)n1C | > 50 µM (active)

test system: not listed separately; assay: cytotoxicity toward NIH3T3 fibroblasts, dose response, counter-screen, cell-based, ATP luminescence, mouse fibroblasts (AID 2010); type: functional; details: not given;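 note: cells exposed to compound for about 90 hours before reading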

SMILES | EC50
Cn1c(=O)[nH]c(=O)c2c1nc(Br)n2CCCSc1nc2ccccc2o1 | 15.8 µM (active)

biological target: Cytochrome P450 2D6 (Homo sapiens, UniProt P10635); assay: not given; details: not given;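 note: CYP2D6 member of a cytochrome P450 panel assay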
Sequence (P10635 whole entry): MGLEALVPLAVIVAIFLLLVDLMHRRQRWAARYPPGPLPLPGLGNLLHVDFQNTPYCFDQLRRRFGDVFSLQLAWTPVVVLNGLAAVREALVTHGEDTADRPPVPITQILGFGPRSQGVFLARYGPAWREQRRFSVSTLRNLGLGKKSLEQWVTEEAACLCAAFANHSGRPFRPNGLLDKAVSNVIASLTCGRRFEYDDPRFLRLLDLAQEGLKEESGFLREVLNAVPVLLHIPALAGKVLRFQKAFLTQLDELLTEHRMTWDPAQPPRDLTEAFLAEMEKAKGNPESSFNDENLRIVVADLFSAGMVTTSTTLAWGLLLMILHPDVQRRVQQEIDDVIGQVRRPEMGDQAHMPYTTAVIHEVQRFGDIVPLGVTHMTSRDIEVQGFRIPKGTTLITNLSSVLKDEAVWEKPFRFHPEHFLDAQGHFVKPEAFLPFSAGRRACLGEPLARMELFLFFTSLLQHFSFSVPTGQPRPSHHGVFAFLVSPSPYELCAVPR

SMILES | AC50
O=C(OCc1ccccn1)c1ccc(COc2ccccc2Cl)o1 | 17.8 µM (inconclusive)

test system: INS1; assay: beta cell apoptosis inhibitors, cytokine rescue, dose response, luminescence, retest (AID 449756); type: functional, cell-based; details: Rattus norvegicus;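 note: cell death triggered by IL-1 beta plus TNF-alpha plus IFN-gamma mixture; protective hits raise ATP signal compared with cytokine alone wells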

SMILES | AC50
Cc1nc(C(F)(F)F)c(C(=O)NN=C(N)c2ccccn2)s1 | 5.45 µM (active)
